This assay concerns the target T1, BACE1 (Homo sapiens, UniProt P56817).
T1 construct: endogenous in cells; host or cells: HEK-293 (stably transfected with wild type APP695 only)
In words: Cellular BACE1 Inhibition Assay (in vitro cellular Amyloidβ 1-40 production assay, HTRF immunoassay). Format: cell-based. As for the experimental part:
The BACE inhibition properties of the compounds of the invention may be determined by the following in vitro cellular Amyloidβ 1-40 production assay.
Inhibition of Amyloidβ1-40 production was determined by incubating cells with compound for 48 hours and quantifying the level of Amyloidβ 1-40 using an HTRF immunoassay.
Materials and Methods: HEK-293 cells stably transfected with a DNA construct containing the coding sequence for the wild type APP695 sequence were grown in DMEM supplemented with 10% fetal bovine serum, penicillin/streptomycin and 150 μg/mL G418. Cells were plated in 96-well plates at 35,000 cells/well and allowed to attach for 8-12 hours. Media was changed to DMEM supplemented with 10% fetal bovine serum, penicillin/streptomycin 15 minutes prior to compound addition. Diluted compounds were then added at a final concentration of 0.5% DMSO. After 48 hours, 4 μL of media from each well was added to a corresponding well of a 384 well plate (Perkin Elmer Cat#6008280) containing the HTRF reagents. HTRF reagents were obtained from the CisBio Amyloidβ 1-40 peptide assay kit (Cat#62B40PEC) and were prepared as follows anti-peptide β (1-40)-Cryptate and anti-peptide β (1-40)-XL655 were stored in 2 plate aliquots at −80° C. Diluent and Reconstitution buffer were stored at 4° C. Aliquots of the two antibodies were diluted 1:100 with Reconstitution buffer, and this mixture was diluted 1:2 with Diluent. 12 μL of the reagent mixture was added to the required wells of the 384 well assay plate. The assay plate was incubated at 4° C. for 17 hours and then analyzed for fluorescence at 665 and 620 nm.
A general note: Time-resolved FRET reads energy transfer from a long-lived donor to a nearby acceptor.

T1 sequence (P56817 46-501): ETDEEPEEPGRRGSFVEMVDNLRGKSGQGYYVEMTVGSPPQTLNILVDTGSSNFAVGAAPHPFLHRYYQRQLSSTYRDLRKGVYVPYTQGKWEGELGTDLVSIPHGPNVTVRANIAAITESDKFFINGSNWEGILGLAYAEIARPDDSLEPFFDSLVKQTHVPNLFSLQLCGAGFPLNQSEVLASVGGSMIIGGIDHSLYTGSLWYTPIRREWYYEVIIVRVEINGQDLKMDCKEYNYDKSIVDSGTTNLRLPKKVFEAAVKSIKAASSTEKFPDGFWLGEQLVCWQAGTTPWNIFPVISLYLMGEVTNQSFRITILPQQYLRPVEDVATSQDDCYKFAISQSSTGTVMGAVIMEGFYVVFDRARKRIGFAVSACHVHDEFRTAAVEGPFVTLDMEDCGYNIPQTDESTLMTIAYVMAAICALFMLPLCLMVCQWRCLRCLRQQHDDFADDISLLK

Regarding `Cc1cc(C(=O)Nc2ccc3c(c2)C2(CCSC(N)=N2)CC(C)(C)C3)c(C)o1` (stereo not drawn) [Example 95, N-(2′-amino-3,3-dimethyl-3,4,5′,6′-tetrahydro-2H-spiro[naphthalene-1,4′-[1,3]thiazine]-7-yl)-2,5-dimethylfuran-3-carboxamide], inhibition was half-maximal at 276 nM (IC50).

As to `CN1C(=O)CC2(CC(C)(C)Cc3ccc(-c4cccnc4F)cc32)N=C1N` (stereo not drawn) [Example 96, 2′-amino-7-(2-fluoropyridin-3-yl)-1′,3,3-trimethyl-3,4-dihydro-1′H,2H-spiro[naphthalene-1,4′-pyrimidin]-6′(5′H)-one], 1320 nM corresponded to half-maximal inhibition (IC50).

With `CC1(C)Cc2ccc(-c3cncnc3)cc2C2(CSC(N)=N2)C1` (stereo not drawn) [Example 109, 3,3-dimethyl-7-(pyrimidin-5-yl)-3,4-dihydro-2H,5′H-spiro[naphthalene-1,4′-thiazol]-2′-amine], the IC50 (as a rule, the concentration at which inhibition is half-maximal) is 482 nM.

Regarding `Cc1cncc(-c2ccc3c(c2)C2(CC(C)(C)C3)N=C(N)N(C)C2=O)c1` (stereo not drawn) [Example 131, 2-amino-1,3′,3′-trimethyl-7′-(5-methylpyridin-3-yl)-3′,4′-dihydro-2′H-spiro[imidazole-4,1′-naphthalen]-5 (1H)-one], the IC50 was 5.1 nM.

Consider `CN1C(=O)C2(CC(C)(C)Cc3ccc(-c4cncc(C#N)c4)cc32)N=C1N` (stereo not drawn) [Example 134, 5-(2-amino-1,3′,3′-trimethyl-5-oxo-1,3′,4′,5-tetrahydro-2′H-spiro[imidazole-4,1′-naphthalene]-7′-yl)nicotinonitrile], for which the IC50 turned out to be 7.9 nM.

Compound `Cc1cnc(F)c(-c2ccc3c(c2)C2(CC(C)(C)C3)N=C(N)N(C)C2=O)c1` (stereo not drawn) [Example 135, 2-amino-7′-(2-fluoro-5-methylpyridin-3-yl)-1,3′,3′-trimethyl-3′,4′-dihydro-2′H-spiro[imidazole-4,1′-naphthalen]-5(1H)-one] gave an IC50 of 8.1 nM.

For the compound `COc1ccnc(-c2ccc3c(c2)C2(CC(C)(C)C3)N=C(N)N(C)C2=O)c1` (stereo not drawn) [Example 137, 2-amino-7′-(4-methoxypyridin-2-yl)-1,3′,3′-trimethyl-3′,4′-dihydro-2′H-spiro[imidazole-4,1′-naphthalen]-5(1H)-one], the IC50 was 6.1 nM.

Take `CN1C(=O)C2(CC(C)(C)Cc3ccc(-c4cc(C(F)(F)F)ccn4)cc32)N=C1N` (stereo not drawn) [Example 139, 2-amino-1,3′,3′-trimethyl-7′-(4-(trifluoromethyl)pyridin-2-yl)-3′,4′-dihydro-2′H-spiro[imidazole-4,1′-naphthalen]-5(1H)-one]: the IC50 came out at 14.8 nM.

Take `CN1C(=O)[C@]2(C[C@@](C)(CO)Cc3ccc(-c4cc(F)cc(Cl)c4)cc32)N=C1N` [Example 144, (1′R,3′S)-2-amino-7′-(3-chloro-5-fluorophenyl)-3′-(hydroxymethyl)-1,3′-dimethyl-3′,4′-dihydro-2′H-spiro[imidazole-4,1′-naphthalen]-5(1H)-one]: the IC50 came out at 3.3 nM.

Turning to `CN1C(=O)[C@]2(C[C@@](C)(Cc3ccccc3)Cc3ccc(-c4cncc(Cl)c4)cc32)N=C1N` [Example 147, (1′R,3′S)-2-amino-3′-benzyl-7′-(5-chloropyridin-3-yl)-1,3′-dimethyl-3′,4′-dihydro-2′H-spiro[imidazole-4,1′-naphthalen]-5(1H)-one], the midpoint of inhibition, the IC50, lay at 1.3 nM.

Compound `CN1C(=O)C2(N=C1N)c1cc(-c3cccnc3F)ccc1CC(C)(C)C2F` (stereo not drawn) [Example 156, 2-amino-2′-fluoro-7′-(2-fluoropyridin-3-yl)-1,3′,3′-trimethyl-3′,4′-dihydro-2′H-spiro[imidazole-4,1′-naphthalen]-5(1H)-one] had an IC50 of 17.2 nM.

Turning to `CN1C(=O)C2(N=C1N)c1cc(-c3cncnc3)ccc1CC(C)(C)C2F` (stereo not drawn) [Example 157, 2-amino-2′-fluoro-1,3′,3′-trimethyl-7′-(pyrimidin-5-yl)-3′,4′-dihydro-2′H-spiro[imidazole-4,1′-naphthalen]-5(1H)-one], 39.6 nM corresponded to half-maximal inhibition (IC50).

`CN1C(=O)C2(N=C1N)c1cc(-c3cncc(Cl)c3)ccc1CC(C)(C)C2F` (stereo not drawn) [Example 158, 2-amino-7′-(5-chloropyridin-3-yl)-2′-fluoro-1,3′,3′-trimethyl-3′,4′-dihydro-2′H-spiro[imidazole-4,1′-naphthalen]-5(1H)-one] returned an IC50 of 6.7 nM.

Consider `CN1C(=O)C2(N=C1N)c1cc(-c3cccnc3F)ccc1CC(C)(C)C2(F)F` (stereo not drawn) [Example 159, 2-amino-2′,2′-difluoro-7′-(2-fluoropyridin-3-yl)-1,3′,3′-trimethyl-3′,4′-dihydro-TH-spiro[imidazole-4,1′-naphthalen]-5(1H)-one], for which half-maximal inhibition (IC50) was put at 26.1 nM.

Compound `CN1C(=O)C2(N=C1N)c1cc(-c3cncnc3)ccc1CC(C)(C)C2(F)F` (stereo not drawn) [Example 160, 2-amino-2′,2′-difluoro-1,3′,3′-trimethyl-7′-(pyrimidin-5-yl)-3′,4′-dihydro-2′H-spiro[imidazole-4,1′-naphthalen]-5(1H)-one] gave an IC50 of 87.3 nM.

The record behind these values is patent publication US20120065195A1, “COMPOUNDS FOR TREATING NEURODEGENERATIVE DISEASES” (priority 2010, published 2012).
